# Active and inactive are the calls of the source. The calls are words filed in the database; no cut-off is given here.
# Columns and labels:
# [1] = Metabolic stability in rat plasma assessed as half life incubated for 6 hrs by HPLC analysis; assay type: ADME, cell-free
# CWR22R [2] = experiment: In vivo antitumor activity against human 22Rv1 cells xenografted in castrated male nude Balb/c mouse assessed as tumor growth inhibition at 50 mg/kg, ip administered twice a week measured after 28 days relative to control; assay type: functional; details: 22Rv1, 672 h, time 28 day, read-out: TGI
# BXPC-3 [3] = experiment: Induction of apoptosis in human BXPC-3 cells assessed as early cells at 100 nM incubated for 24 hrs by […] (reference value: 1.68 %); assay type: functional
# [4] = Toxicity in castrated male nude Balb/c mouse xenografted with human 22Rv1 cells assessed as toxic signs at 50 mg/kg, ip administered twice a week measured after 28 days; assay type: organism-based, CWR22R; details: in vivo, 672 h, time 28 day
# CWR22R [5] = experiment: In vivo antitumor activity against human 22Rv1 cells xenografted in castrated male nude Balb/c mouse assessed as relative increment ratio at 50 mg/kg, ip administered twice a week measured after 28 days relative to control; assay type: functional; details: time 28 day
# BXPC-3 [6] = experiment: Induction of apoptosis in human BXPC-3 cells assessed as viable cells at 100 nM incubated for 24 hrs by […] (reference value: 93.51 %); assay type: functional; details: read-out: Activity
# BXPC-3 [7] = experiment: Antiproliferative activity against human BXPC-3 cells assessed as inhibition of cell proliferation treated for 72 hrs by resazurin dye-based fluorescence assay; assay type: functional; details: BXPC-3, 72 h
# CWR22R [8] = experiment: Antiproliferation activity against human 22Rv1 cells xenografted in castrated male nude Balb/c mouse assessed as downregulation of Ki-67 level at 50 mg/kg, ip administered twice a week measured after 28 days by immunohistochemical assay relative to control; assay type: functional, organism-based; details: time 28.0 day
# CWR22R [9] = experiment: Antiproliferative activity against human 22Rv1 cells assessed as inhibition of cell proliferation treated for 72 hrs by resazurin dye-based fluorescence assay; assay type: functional; details: 22Rv1, 72 h
# [10] = AUC (0 to infinity) in Beagle dog at 1 mg/kg, iv measured for 0.083 to 24 hrs by LC-MS/MS analysis; assay type: ADME, organism-based, Canis lupus familiaris; set-up: time upper 24 hrs, time lower 0.083 hrs, dose 1 mg/kg, route iv; details: in vivo
# BXPC-3 [11] = experiment: Induction of apoptosis in human BXPC-3 cells assessed as late cells at 100 nM incubated for 24 hrs by […] (reference value: 1.24 %); assay type: functional
# Huh-7 = experiment: Antiproliferative activity against human Huh-7 cells assessed as inhibition of cell proliferation treated for 72 hrs by resazurin dye-based fluorescence assay; assay type: functional; details: Huh-7, 72 h
# [12] = Metabolic stability in human plasma assessed as half life incubated for 6 hrs by HPLC analysis; assay type: ADME, cell-free
# [13] = Clearance in Beagle dog at 1 mg/kg, iv measured for 0.083 to 24 hrs by LC-MS/MS analysis; assay type: ADME, organism-based, Canis lupus familiaris; details: in vivo, time 0.083-24 hrs
# MV4-11 = experiment: Antiproliferative activity against human MV4-11 cells assessed as inhibition of cell proliferation treated for 72 hrs by resazurin dye-based fluorescence assay; assay type: functional; details: MV4-11, 72 h
# BXPC-3 [14] = experiment: Induction of apoptosis in human BXPC-3 cells assessed as necrotic cells at 25 nM incubated for 24 hrs by […] (reference value: 3.57 %); assay type: functional
# BXPC-3 [15] = experiment: Cell cycle arrest in human BXPC-3 cells assessed as cell accumulation at S phase at 25 to 100 nM incubated for 24 hrs by flow cytometry; assay type: functional, cell-based; details: dose 25-100 nM
# BXPC-3 [16] = experiment: Induction of apoptosis in human BXPC-3 cells assessed as necrotic cells at 50 nM incubated for 24 hrs by […] (reference value: 3.57 %); assay type: functional
# BXPC-3 [17] = experiment: Induction of apoptosis in human BXPC-3 cells assessed as early cells at 50 nM incubated for 24 hrs by […] (reference value: 1.68 %); assay type: functional
# [18] = (§1) Prodrug conversion in human plasma assessed as mixture of benzyl 2-(((((2R,3R,5R)-5-(4-amino-2-oxopyrimidin-1(2H)-yl)-4,4-difluoro-3-hydroxytetrahydrofuran-2-yl)methoxy)(hydroxy)phosphoryl)oxy)acetate and benzyl 2-(((((2R,3R,5R)-5-(4-amino-2-oxopyrimidin-1(2H)-yl)-4,4-difluoro-2-(hydroxymethyl)tetrahydrofuran-3-yl)oxy)(hydroxy)phosphoryl)oxy)acetate metabolites formation incubated for 72 hrs by LC-MS analysis; assay type: ADME, cell-free
# MIA PaCa-2 = experiment: Antiproliferative activity against human MIA PaCa-2 cells assessed as inhibition of cell proliferation treated for 72 hrs by resazurin dye-based fluorescence assay; assay type: functional; details: MIA PaCa-2, 72 h
# [19] = Toxicity in nude Balb/c mouse xenografted with human BXPC-3 cells assessed as apparent signs of toxicity at 50 to 80 mg/kg, ip measured after 28 days; assay type: organism-based; details: in vivo, 672 h, dose 50-80 mg/kg, time 28 day
# [20] = as §1, with “31P-NMR” for “LC-MS”; assay type: ADME, cell-free
# MM1.S = experiment: Antiproliferative activity against human MM1.S cells assessed as inhibition of cell proliferation treated for 72 hrs by resazurin dye-based fluorescence assay; assay type: functional
# BXPC-3 [21] = experiment: Induction of apoptosis in human BXPC-3 cells assessed as viable cells at 25 nM incubated for 24 hrs by […] (reference value: 93.51 %); assay type: functional; details: read-out: Activity
# BXPC-3 [22] = experiment: In vivo antitumor activity against human BXPC-3 cells xenografted in nude Balb/c mouse assessed as tumor growth inhibition at 50 to 80 mg/kg, ip measured after 28 days; assay type: functional, organism-based; details: dose 50-80 mg/kg, time 28.0 day
# [23] = Cmax in Beagle dog at 1 mg/kg, iv measured for 0.083 to 24 hrs by LC-MS/MS analysis; assay type: ADME, organism-based, Canis lupus familiaris; set-up: time upper 24 hrs, time lower 0.083 hrs, dose 1 mg/kg, route iv; details: in vivo
# [24] = as §1, with “1H-NMR” for “LC-MS”; assay type: ADME, cell-free
# [25] = Half life in Beagle dog at 1 mg/kg, iv measured for 0.083 to 24 hrs by LC-MS/MS analysis; assay type: ADME, organism-based, Canis lupus familiaris; details: in vivo, time 0.083-24 hrs
# BXPC-3 [26] = experiment: Induction of apoptosis in human BXPC-3 cells assessed as necrotic cells at 100 nM incubated for 24 hrs by […] (reference value: 3.57 %); assay type: functional
# [27] = Toxicity in castrated male nude Balb/c mouse xenografted with human 22Rv1 cells assessed as tolerance at 50 mg/kg, ip administered twice a week measured after 28 days; assay type: organism-based, CWR22R; details: in vivo, 672 h, time 28 day
# BXPC-3 [28] = experiment: Induction of apoptosis in human BXPC-3 cells assessed as early cells at 25 nM incubated for 24 hrs by […] (reference value: 1.68 %); assay type: functional
# BXPC-3 [29] = experiment: Induction of apoptosis in human BXPC-3 cells assessed as late cells at 25 nM incubated for 24 hrs by […] (reference value: 1.24 %); assay type: functional
# JeKo-1 = experiment: Antiproliferative activity against human JeKo-1 cells assessed as inhibition of cell proliferation treated for 72 hrs by resazurin dye-based fluorescence assay; assay type: functional; details: JeKo-1, 72 h
# [30] = Toxicity in castrated male nude Balb/c mouse xenografted with human 22Rv1 cells assessed as animal weight loss at 50 mg/kg, ip administered twice a week measured after 28 days; assay type: organism-based, CWR22R; details: in vivo, 672 h, time 28 day
# [31] = Metabolic stability in beagle dog plasma assessed as half life incubated for 6 hrs by HPLC analysis; assay type: ADME, cell-free, Canis lupus familiaris
# BXPC-3 [32] = experiment: Upregulation of P21 WAF1/Cip1 expression in human BXPC-3 cells at 25 to 100 nM incubated for 24 hrs by Western blot analysis; assay type: functional, cell-based; details: dose 25-100 nM
# [33] = Prodrug conversion in human plasma assessed as metabolites formation incubated for 24 hrs by 31P-NMR analysis; assay type: ADME, cell-free
# BXPC-3 [34] = experiment: Induction of apoptosis in human BXPC-3 cells assessed as late cells at 50 nM incubated for 24 hrs by […] (reference value: 1.24 %); assay type: functional
# BXPC-3 [35] = experiment: Upregulation of cleaved caspase-3 expression in human BXPC-3 cells at 25 to 100 nM incubated for 24 hrs by Western blot analysis; assay type: functional, cell-based; details: dose 25-100 nM
# BXPC-3 [36] = experiment: Induction of apoptosis in human BXPC-3 cells assessed as viable cells at 50 nM incubated for 24 hrs by […] (reference value: 93.51 %); assay type: functional; details: read-out: Activity
smiles,measurement,setting,value
Nc1ccn([C@@H]2O[C@@H]3COP(=O)(OCC(=O)OCc4ccccc4)O[C@H]3C2(F)F)c(=O)n1 (stereo partly specified),half-life,[1],40 min
same,inhibition in vivo at 50 mg/kg,CWR22R [2],68.5%
same,Activity,BXPC-3 [3],3.5%
same,Activity,[4],Non-Toxic
same,T/C,CWR22R [5],35.2%
same,viability at 0.1 µM,BXPC-3 [6],88.6%
same,IC50,BXPC-3 [7],0.0165 µM
same,Activity,CWR22R [8],Active
same,IC50,CWR22R [9],0.0106 µM
same,AUC(0-inf),[10],520 ng·h/mL
same,Activity,BXPC-3 [11],3.48%
same,IC50,Huh-7,0.0162 µM
same,half-life,[12],40 min
same,clearance,[13],32.5 mL/min/kg
same,IC50,MV4-11,0.0054 µM
same,Activity,BXPC-3 [14],3.17%
same,Activity,BXPC-3 [15],Active
same,Activity,BXPC-3 [16],4.02%
same,Activity,BXPC-3 [17],3.19%
same,Drug metabolism,[18],Metabolite_Detected
same,IC50,MIA PaCa-2,0.0125 µM
same,Activity,[19],Non-Toxic
same,Drug metabolism,[20],Metabolite_Detected
same,IC50,MM1.S,0.0036 µM
same,viability at 0.025 µM,BXPC-3 [21],91.7%
same,Activity,BXPC-3 [22],Active
same,Cmax,[23],3600 ng/mL
same,Drug metabolism,[24],Metabolite_Detected
same,half-life,[25],7.2 min
same,Activity,BXPC-3 [26],4.42%
same,Activity,[27],Non-Toxic
same,Activity,BXPC-3 [28],2.87%
same,Activity,BXPC-3 [29],2.31%
same,IC50,JeKo-1,0.0192 µM
same,Activity,[30],Non-Toxic
same,half-life,[31],40 min
same,Activity,BXPC-3 [32],Active
same,Drug metabolism,[33],Metabolite_Detected
same,Activity,BXPC-3 [34],2.73%
same,Activity,BXPC-3 [35],inactive
same,viability at 0.05 µM,BXPC-3 [36],90.1%
